Each structure is given as a SMILES string. Converted amounts (≈) assume the structure as drawn.

Assay [1] has as its system MCF7. Nature of the assay: Growth inhibition of human MCF7 cells at 20 uM after 72 hrs by crystal violet biomass reduction assay. It is filed as functional. The following applies: MCF7, 72 h, read-out: GI.
In assay [2] the test system is PC-3. Nature of the assay: Growth inhibition of human PC3 cells at 20 uM after 72 hrs by crystal violet biomass reduction assay. It is filed as functional. To be noted: PC-3, 72 h, read-out: GI.
Assay [3] has as its system PC-3. Briefly: Anticancer activity against human PC3 cells after 72 hrs by crystal violet biomass reduction assay. The following applies: PC-3, 72 h. It is filed as functional, cell-based.
In assay [4] the test system is MCF7. Nature of the assay: Anticancer activity against human MCF7 cells after 72 hrs by crystal violet biomass reduction assay. It is filed as functional, cell-based. To be noted: MCF7, 72 h.
Assay [5] relates to P388. Briefly: Cytotoxicity against mouse P388 cells. It is filed as functional, cell-based.

As for `CCCCCCC[C@H](CC(=O)N[C@H]1CCCCN(O)C1=O)OC(=O)[C@H](CCCCN(O)C=O)NC(=O)c1nc(-c2ccccc2O)oc1C`, the values for the inhibition of growth at 20 µM in assay [1] and in assay [2] were 94% and 72%, respectively. For the same compound, the values for the half-maximal inhibitory concentration (IC50) in assay [3] and in assay [4] were 4000 nM and 200 nM, respectively.

Consider `CCCCCCC[C@@H](CC(=O)N[C@H]1CCCCN(O)C1=O)OC(=O)[C@H](CCCCN(O)C=O)NC(=O)c1nc(-c2ccccc2O)oc1C`, for which the inhibition of growth at 20 µM in assay [1] came to 91%; in assay [2], 62%. Further, the values for the half-inhibitory concentration (IC50) in assay [3] and in assay [4] were 8000 nM and 320 nM, respectively.

On to `CCCCCCC[C@H](CC(=O)N[C@H]1CCCCN(O)C1=O)NC(=O)[C@H](CCCCN(O)C=O)NC(=O)c1nc(-c2ccccc2O)oc1C`, for which the inhibition of growth at 20 µM in assay [1] amounted to 96%; in assay [2], 72%. Besides, the IC50 in assay [3] was found to be 9000 nM; in assay [4], 550 nM.

As to `CCCCCCC[C@@H](CC(=O)N[C@H]1CCCCN(O)C1=O)NC(=O)[C@H](CCCCN(O)C=O)NC(=O)c1nc(-c2ccccc2O)oc1C`, the figures for the inhibition of growth at 20 µM in assay [1] and in assay [2] were 95% and 68%, respectively. In addition, the results for the IC50 in assay [3] and in assay [4] were 14000 nM and 2000 nM, respectively.

In the case of `CCCCCCC[C@H](CC(=O)N[C@H]1CCCCN(O)C1=O)OC(=O)[C@H](CCCCN(O)C=O)NC(=O)c1coc(-c2ccccc2O)n1`, the values for the inhibition of growth at 20 µM in assay [1] and in assay [2] were 91% and 85%, respectively. The IC50 in assay [3] amounted to 3750 nM; in assay [4], 450 nM.

Regarding `CCCCCCC[C@@H](CC(=O)N[C@H]1CCCCN(O)C1=O)OC(=O)[C@H](CCCCN(O)C=O)NC(=O)c1coc(-c2ccccc2O)n1`, the inhibition of growth at 20 µM in assay [1] came to 93%; in assay [2], 60%. Further, the half-inhibitory concentration (IC50) in assay [3] was determined as 9000 nM; in assay [4] it was 800 nM.

Regarding `CCCCCCC[C@H](CC(=O)N[C@H]1CCCCN(O)C1=O)OC(=O)[C@H](CCCCN(O)C=O)NC(=O)[C@@H]1COC(c2ccccc2O)=N1`, the inhibition of growth at 20 µM in assay [1] came to 87%; in assay [2], 83%. The IC50 was 3000 nM in assay [3] and 240 nM in assay [4].

Turning to `CCCCCCC[C@@H](CC(=O)N[C@H]1CCCCN(O)C1=O)OC(=O)[C@H](CCCCN(O)C=O)NC(=O)[C@@H]1COC(c2ccccc2O)=N1`, the inhibition of growth at 20 µM in assay [1] was found to be 89%; in assay [2], 79%. Moreover, the half-maximal inhibitory concentration (IC50) in assay [3] was 3000 nM; in assay [4], 500 nM.

On to `CCCCCCC[C@H](CC(=O)N[C@H]1CCCCN(O)C1=O)OC(=O)[C@H](CCCCN(O)C=O)NC(=O)[C@H]1COC(c2ccccc2O)=N1`, for which the inhibition of growth at 20 µM was determined as 92% in assay [1] and 90% in assay [2]. For the same compound, the IC50 in assay [3] turned out to be 2000 nM; in assay [4], 320 nM.

For the compound `CCCCCCC[C@@H](CC(=O)N[C@H]1CCCCN(O)C1=O)OC(=O)[C@H](CCCCN(O)C=O)NC(=O)[C@H]1COC(c2ccccc2O)=N1`, the inhibition of growth at 20 µM is 90% in assay [1] and 79% in assay [2]. In addition, the results for the IC50 in assay [3] and in assay [4] were 7500 nM and 3000 nM, respectively.

Consider `CCCCCCC[C@H](CC(=O)N[C@H]1CCCCN(O)C1=O)OC(=O)[C@H](CCCCN(O)C=O)NC(=O)c1cccc(O)c1O`, for which the inhibition of growth at 20 µM amounted to 86% in assay [1] and 40% in assay [2]. This compound also displayed a half-maximal inhibitory concentration (IC50) in assay [4] of 6000 nM.

For the compound `CCCCCCC[C@@H](CC(=O)N[C@H]1CCCCN(O)C1=O)OC(=O)[C@H](CCCCN(O)C=O)NC(=O)c1cccc(O)c1O`, the inhibition of growth at 20 µM in assay [1] is 81%; in assay [2], 63%. Further, the IC50 in assay [3] amounted to 7000 nM; in assay [4], 1000 nM.

`CCCCCCC[C@H](OC(=O)[C@@H](CCCCN(O)C=O)NC(=O)c1nc(-c2ccccc2O)oc1C)C(C)(C)C(=O)N[C@H]1CCCCN(O)C1=O` showed an IC50 in assay [5] of 0.016 µg/mL (≈ 0.0224 µM).

In assay [5], `CCCCCCC[C@H](OC(=O)[C@@H](CCCCN(O)C=O)NC(=O)c1nc(-c2cc(OC)ccc2O)oc1C)C(C)(C)C(=O)N[C@H]1CCCCN(O)C1=O` [AMAMISTATIN A] gave an IC50 of 0.015 µg/mL (≈ 0.0201 µM). This IC50 and that of the compound before are within 1.5-fold of each other.

Values taken from ChEMBL document CHEMBL1781934, “Syntheses and studies of amamistatin B analogs reveals that anticancer activity is relatively independent of stereochemistry, ester or amide linkage and select replacement of one of the metal chelating groups” (Bioorg Med Chem Lett, 2011).
